Laboratory results taken from article PMC4096861 (Clinical lymphoma, myeloma & leukemia, 2013).
Read-outs that look alike come from different tables or passages of the source.

Tests used:
[1] = tested on: aurora kinase B substrate pHH3; experiment: Western blot of PBMCs from patient blood; format: in vivo, human
Src = details: read-out: IC50 Src; cited from earlier work
c-kit = details: @ 250 nM; cited from earlier work
bone marrow blasts = experiment: Phase 1: efficacy; format: in vivo, human
Aurora B = details: @ 3 nM; cited from earlier work
Lck = details: read-out: IC50 Lck; cited from earlier work
Fit3 = details: @ 15 nM; cited from earlier work
[2] = Phase 1: plasma pharmacokinetics, Cycle 1; format: in vivo, human; details: for clearance / Tmax / AUC(0-inf) / Cmax: human
RSK-1 = details: read-out: IC50 RSK-1; cited from earlier work
Aurora A = details: @ 3 nM; cited from earlier work
[3] = format: in vivo, human
AML = details: eight of 32 adult AML patients; cited from earlier work
[4] = plasma, intravenous, 144 mg/m^2
[5] = plasma, intravenous, 160 mg/m^2
[6] = plasma, intravenous, 200 mg/m^2
[7] = plasma, intravenous, 216 mg/m^2

With `O=C(Nc1c[nH]nc1-c1nc2ccc(CN3CCOCC3)cc2[nH]1)NC1CC1` [AT9283] as the compound, how does the “pHH3 phosphorylation in PBMCs” value ([1]; 3 mg/m^2/day (9 mg/m^2/72h), two of three patients) read?
The value was “inhibition of pHH3 phosphorylation was observed”.

What about the “phosphorylation of aurora kinase B substrate pHH3 in PBMCs” value ([1]; MTD 108 mg/m^2/day (324 mg/m^2/72h), two of three patients) of the same compound?
Its value is “rapid inhibition of phosphorylation”.

What about the IC50 (Src) of the same compound?
The IC50 was 97 nM.

And the inhibition of c-kit (c-kit)?
Its inhibition of c-kit is 46% @ 250 nM.

What about the “reduction in bone marrow blasts” value (bone marrow blasts; Patient B, MTD 108 mg/m^2/day over 72h, 2 cycles, 62% at baseline v 32% at follow-up) of the same compound?
The value was 48%.

And the “objective remission (complete and partial)” value (bone marrow blasts; all patients)?
The value was “no objective or partial remissions were observed”.

And the “reduction in bone marrow blasts” value (bone marrow blasts; approximately one-third of patients with relapsed/refractory AML)?
Its value is no less than 38%.

What about the “benefit in accelerated phase CML” value (bone marrow blasts; both patients with accelerated phase CML, cytogenetic response in 1) of the same compound?
The value was “evidence of benefit”.

What about the “benefit in myeloproliferative disease” value (bone marrow blasts; patients with myeloproliferative disease) of the same compound?
Its value is “no sustained evidence of treatment benefit”.

And the “inhibition of Aurora B” value (Aurora B)?
Its value is 58% @ 3 nM.

What about the IC50 (Lck) of the same compound?
The IC50 was 63 nM.

And the “inhibition of Fit3” value (Fit3)?
The value was 57% @ 15 nM.

And the “dose proportionality of exposure” value ([2]; Cmax and AUC0-inf)?
Its value is “generally proportional to dose”.

What about the clearance ([2]; in vivo) of the same compound?
The clearance was 5.36 mL/min/kg.

What about the Tmax ([2]; in vivo, Tmax) of the same compound?
The Tmax was 53.8 h.

And the Tmax ([2]; in vivo, Tmax of mean maximum plasma concentrations)?
Its Tmax is 41 to 62 h.

And the AUC(0-inf) ([2]; plasma, intravenous, 9 mg/m^2)?
Its AUC(0-inf) is 465 ng·h/mL.

What about the Cmax ([2]; plasma, intravenous, 9 mg/m^2) of the same compound?
The Cmax was 7.35 ng/mL.

What about the clearance ([2]; plasma, intravenous, 9 mg/m^2) of the same compound?
Its clearance is 9.52 mL/min/kg.

And the Tmax ([2]; plasma, intravenous, 9 mg/m^2, Tmax, Cycle 1 mean plasma, 9 mg/m^2, 72 hr infusion (n=3))?
The Tmax was 47.2 h.

And the AUC(0-inf) ([2]; plasma, intravenous, 18 mg/m^2)?
Its AUC(0-inf) is 1070 ng·h/mL.

What about the Cmax ([2]; plasma, intravenous, 18 mg/m^2) of the same compound?
Its Cmax is 18.1 ng/mL.

And the clearance ([2]; plasma, intravenous, 18 mg/m^2)?
Its clearance is 7.17 mL/min/kg.

And the Tmax ([2]; plasma, intravenous, 18 mg/m^2, Tmax, Cycle 1 mean plasma, 18 mg/m^2, 72 hr infusion (n=3))?
Its Tmax is 62 h.

And the AUC(0-inf) ([2]; plasma, intravenous, 36 mg/m^2)?
Its AUC(0-inf) is 2860 ng·h/mL.

And the Cmax ([2]; plasma, intravenous, 36 mg/m^2)?
Its Cmax is 41.1 ng/mL.

And the clearance ([2]; plasma, intravenous, 36 mg/m^2)?
The clearance was 6.03 mL/min/kg.

And the Tmax ([2]; plasma, intravenous, 36 mg/m^2, Tmax, Cycle 1 mean plasma, 36 mg/m^2, 72 hr infusion (n=7))?
Its Tmax is 53.2 h.

What about the AUC(0-inf) ([2]; plasma, intravenous, 72 mg/m^2) of the same compound?
The AUC(0-inf) was 16300 ng·h/mL.

And the Cmax ([2]; plasma, intravenous, 72 mg/m^2)?
Its Cmax is 131 ng/mL.

What about the clearance ([2]; plasma, intravenous, 72 mg/m^2) of the same compound?
The clearance was 1.84 mL/min/kg.

What about the Tmax ([2]; plasma, intravenous, 72 mg/m^2, Tmax, Cycle 1 mean plasma, 72 mg/m^2, 72 hr infusion (n=3)) of the same compound?
Its Tmax is 46.7 h.

What about the AUC(0-inf) [2, 4] of the same compound?
Its AUC(0-inf) is 14300 ng·h/mL.

And the Cmax [2, 4]?
Its Cmax is 229 ng/mL.

And the clearance [2, 4]?
The clearance was 4.27 mL/min/kg.

And the Tmax ([2]; plasma, intravenous, 144 mg/m^2, Tmax, Cycle 1 mean plasma, 144 mg/m^2, 72 hr infusion (n=4))?
Its Tmax is 54.7 h.

What about the AUC(0-inf) [2, 5] of the same compound?
The AUC(0-inf) was 13700 ng·h/mL.

And the Cmax [2, 5]?
Its Cmax is 164 ng/mL.

What about the clearance [2, 5] of the same compound?
The clearance was 5.61 mL/min/kg.

What about the Tmax ([2]; plasma, intravenous, 160 mg/m^2, Tmax, Cycle 1 mean plasma, 160 mg/m^2, 96 hr infusion (n=12)) of the same compound?
The Tmax was 59.3 h.

What about the AUC(0-inf) [2, 6] of the same compound?
The AUC(0-inf) was 19100 ng·h/mL.

What about the Cmax [2, 6] of the same compound?
Its Cmax is 184 ng/mL.

What about the clearance [2, 6] of the same compound?
Its clearance is 4.58 mL/min/kg.

And the Tmax ([2]; plasma, intravenous, 200 mg/m^2, Tmax, Cycle 1 mean plasma, 200 mg/m^2, 120 hr infusion (n=4))?
The Tmax was 69 h.

What about the AUC(0-inf) [2, 7] of the same compound?
Its AUC(0-inf) is 13000 ng·h/mL.

And the Cmax [2, 7]?
Its Cmax is 228 ng/mL.

And the clearance [2, 7]?
The clearance was 7.13 mL/min/kg.

And the Tmax ([2]; plasma, intravenous, 216 mg/m^2, Tmax, Cycle 1 mean plasma, 216 mg/m^2, 72 hr infusion (n=3))?
Its Tmax is 41.3 h.

What about the Cmax ([2]; plasma, intravenous, 486 mg/m^2) of the same compound?
The Cmax was 1280 ng/mL.

What about the Tmax ([2]; plasma, intravenous, 486 mg/m^2, Tmax, Cycle 1 mean plasma, 486 mg/m^2, 72 hr infusion (n=3)) of the same compound?
Its Tmax is 51 h.

And the “inhibition of Aurora A” value (Aurora A)?
The value was 52% @ 3 nM.

And the deaths ([3]; 13 deaths of 48 patients)?
The deaths was 27%.

And the MTD ([3]; 72-hour continuous infusion every 21 days)?
Its MTD is 324 mg/m^2/72h.

What about the MTD ([3]; 72-hour infusion) of the same compound?
The MTD was 108 mg/m^2/day.

And the “AE incidence overall: constipation” value ([3]; human, in vivo)?
The value was 21%.

And the “AE incidence overall: diarrhea” value ([3]; human, in vivo)?
Its value is 29%.

And the “AE incidence overall: epistaxis” value ([3]; human, in vivo)?
Its value is 17%.

And the “AE incidence overall: fatigue” value ([3]; human, in vivo)?
The value was 27%.

What about the “AE incidence overall: febrile neutropenia” value ([3]; human, in vivo) of the same compound?
Its value is 25%.

And the “AE incidence overall: gastrointestinal disorders” value ([3]; human, in vivo)?
Its value is 75%.

And the “AE incidence overall: headache” value ([3]; human, in vivo)?
The value was 21%.

What about the “AE incidence overall: nausea” value ([3]; human, in vivo) of the same compound?
Its value is 29%.

And the “AE incidence overall: peripheral edema” value ([3]; human, in vivo)?
The value was 25%.

And the “AE incidence overall: pneumonia” value ([3]; human, in vivo)?
Its value is 29%.

What about the “AT9283-related AE incidence: alopecia” value ([3]; human, in vivo) of the same compound?
The value was 8%.

And the “AT9283-related AE incidence: nausea” value ([3]; human, in vivo)?
The value was 15%.

What about the “AT9283-related AE incidence: stomatitis” value ([3]; human, in vivo) of the same compound?
Its value is 13%.

And the “incidence of cardiac tachyarrythmias” value ([3]; human, in vivo)?
The value was 15%.

What about the “patients withdrawn after treatment due to AEs” value ([3]; human, in vivo) of the same compound?
The value was 15%.

And the “incidence of AEs (highest)” value ([3]; human, in vivo, 72 h)?
The value was 100%.

What about the “incidence of AEs (lowest)” value ([3]; human, in vivo, 72 h) of the same compound?
Its value is 29%.

What about the DLTs ([3]; in vivo) of the same compound?
Its DLTs is “myocardial infarction, hypertension, cardiomyopathy, tumor lysis syndrome, pneumonia, and multiorgan failure”.

What about the “left ventricular ejection fraction (LVEF) after severe drop” value ([3]; in vivo) of the same compound?
The value was 20–25%.

What about the tolerability of regimen ([3]; in vivo) of the same compound?
Its tolerability of regimen is “unacceptably toxic”.

For `CCN(CCCOc1ccc2c(Nc3cc(CC(=O)Nc4cccc(F)c4)n[nH]3)ncnc2c1)CCOP(=O)(O)O` [AZD1152], which “haematologic response according to IWG AML criteria” value (AML) is on record?
Its value is 25%.
